pIC50: −log10 of the molar value. Numbered stars: 1 amine (or outer) side, 2 acyl side, 3 side chain; on linkers, the order of the positions; unused ones are H or OH. Bridge positions count the residues as written; N and C are the ends. Square brackets hold non-standard residues; d marks the D form. Peptide text beside a SMILES is read from it. X8 = C[C@@H](C(=O)[*:2])N(CCC(F)(F)F)[*:1]; N(2-hydroxyethyl)Ala = C[C@H](NCCO)C(=O)O; X3 = CCCC[C@@H](C(=O)[*:2])N(CCO)[*:1]; X2 = C[C@@H](C(=O)[*:2])N(CCN)[*:1]; X1 = O=C(CN(CCC(F)(F)F)[*:1])[*:2]; NBnAla = C[C@H](NCc1ccccc1)C(=O)O; Hyp = O=C(O)[C@@H]1C[C@@H](O)CN1; Gly(N-CH2CH2OH) = O=C(O)CNCCO; NMeNle = CCCC[C@H](NC)C(=O)O; NMeA = CN[C@@H](C)C(=O)O; Dab = NCC[C@H](N)C(=O)O

T1 sequence (Q9NZQ7 with tags, fused parts or gaps): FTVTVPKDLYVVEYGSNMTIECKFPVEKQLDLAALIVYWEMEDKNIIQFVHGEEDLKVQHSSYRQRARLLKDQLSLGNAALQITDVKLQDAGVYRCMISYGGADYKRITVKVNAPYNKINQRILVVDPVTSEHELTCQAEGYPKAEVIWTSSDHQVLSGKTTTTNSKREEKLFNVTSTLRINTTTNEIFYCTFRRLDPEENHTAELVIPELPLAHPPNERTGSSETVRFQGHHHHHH

One test concerns the target T1, PD-1-Ig binding to PD-L1-TVMV-His (PD-L1-His) (Homo sapiens, UniProt Q9NZQ7).
T1 construct: hPDL1(19-239)-TVMV-His; made in house; host or cells: HEK293T
Description: PD-1/PD-L1 Homogenous Time-Resolved Fluorescence (HTRF) binding assay. As to conditions: numeric value; PD-L1-His 10 nM, PD-1-Ig 20 nM. An excerpt: Methods for Testing the Ability of Macrocyclic Peptides to Compete for the Binding of Pd-1 to Pd-L1 Using Homogenous Time-Resolved Fluorescence (HTRF) Binding Assays
The ability of the macrocyclic peptides of the present disclosure to bind to PD-L1 was investigated using a PD-1/PD-L1 Homogenous Time-Resolved Fluorescence (HTRF) binding assay.
Homogenous Time-Resolved Fluorescence (HTRF) Assays of Binding of Soluble PD-1 to Soluble PD-L1. Soluble PD-1 and soluble PD-L1 refers to proteins with carboxyl-end truncations that remove the transmembrane-spanning regions and are fused to heterologous sequences, specifically the Fc portion of the human immunoglobuling G sequence (Ig) or the hexahistidine epitope tag (His). All binding studies were performed in an HTRF assay buffer consisting of dPBS supplemented with 0.1% (w/v) bovine serum albumin and 0.05% (v/v) Tween-20. For the PD-1-Ig/PD-L1-His binding assay, inhibitors were pre-incubated with PD-L1-His (10 nM final) for 15 m in 4 μl of assay buffer, followed by addition of PD-1-Ig (20 nM final) in 1 μl of assay buffer and further incubation for 15 m. PD-L1 fusion proteins from either human, cynomologous macaques, mouse, or other species were used. HTRF detection was achieved using europium crypate-labeled anti-Ig monoclonal antibody (1 nM final) and allophycocyanin (APC) labeled anti-His monoclonal antibody (20 nM final). Antibodies were diluted in HTRF detection buffer and 5 μl was dispensed on top of binding reaction. The reaction was allowed to equilibrate for 30 minutes and signal (665 nm/620 nm ratio) was obtained using an EnVision fluorometer. Additional binding assays were established between PD-1-Ig/PD-L2-His (20 and 5 nM, respectively), CD80-His/PD-L1-Ig (100 and 10 nM, respectively) and CD80-His/CTLA4-Ig (10 and 5 nM, respectively). Binding/competition studies between biotinylated Compound No. 71 and human PD-L1-His were performed as follows. Macrocyclic peptide inhibitors were pre-incubated with PD-L1-His (10 nM final) for 60 minutes in 4 μl of assay buffer followed by addition of biotinylated Compound No. 71 (0.5 nM final) in 1 μl of assay buffer. Binding was allowed to equilibrate for 30 minutes followed by addition of europium crypated labeled Streptavidin (2.5 pM final) and APC-labeled anti-His (20 nM final) in 5 μl of HTRF buffer. The reaction was allowed to equilibrate for 30 m and signal (665 nm/620 nm ratio) was obtained using an EnVision fluorometer.
Recombinant Proteins. Carboxyl-truncated human PD-1 (amino acids 25-167) with a C-terminal human Ig epitope tag [hPD-1 (25-167)-3S-IG] and human PD-L1 (amino acids 18-239) with a C-terminal His epitope tag [hPD-L1(19-239)-tobacco vein mottling virus protease cleavage site (TVMV)-His] were expressed in HEK293T cells and purified sequentially by recombinant Protein A affinity chromatography and size exclusion chromatography. Human PD-L2-His (Sino Biologicals), CD80-His (Sino Biologicals), CTLA4-Ig (RnD Systems) were all obtained through commercial sources.
Ranges are as follows: A=0.10-10 μM; B=0.01-0.099 μM; C=0.005-0.0099 μM.
On the technique in general: In TR-FRET formats the signal depends on donor and acceptor labels being close together.
`CCCC[C@H]1C(=O)N[C@@H](CC(C)C)C(=O)N[C@H](C(=O)NCC(N)=O)CSCC(=O)N[C@@H](Cc2ccc(O)cc2)C(=O)N(C)[C@@H](C)C(=O)N[C@@H](CC(N)=O)C(=O)N2CCC[C@H]2C(=O)N[C@@H](Cc2cnc[nH]2)C(=O)N[C@@H](CCC(=O)O)C(=O)N2C[C@H](O)C[C@H]2C(=O)N[C@@H](Cc2c[nH]c3ccccc23)C(=O)N[C@@H](CCN)C(=O)N[C@@H](Cc2c[nH]c3ccccc23)C(=O)N(CCC(F)(F)F)CC(=O)N1C` [Example 3038] ({CH2CO}-Y[NMeA]NPHE[Hyp]W[Dab]W[X1][NMeNle]LCG-NH2; thioether N-14) gave a pIC50 of 5.63.

Staying with this test, now noted: range class; PD-L1-His 10 nM, PD-1-Ig 20 nM.
`CCCC[C@H]1C(=O)N[C@@H](CC(C)C)C(=O)N[C@H](C(=O)NCC(N)=O)CSCC(=O)N[C@@H](Cc2ccc(O)cc2)C(=O)N(C)[C@@H](C)C(=O)N[C@@H](CC(N)=O)C(=O)N2CCC[C@H]2C(=O)N[C@@H](Cc2cnc[nH]2)C(=O)N[C@@H](CCC(=O)O)C(=O)N2C[C@H](O)C[C@H]2C(=O)N[C@@H](Cc2c[nH]c3ccccc23)C(=O)N[C@@H](CCN)C(=O)N[C@@H](Cc2c[nH]c3ccccc23)C(=O)N(CC(=O)O)[C@@H](C)C(=O)N1C` [Example 3028] showed a pIC50 of 5.00 to 7.00. The molecule `CCCC[C@H]1C(=O)N[C@@H](CC(C)C)C(=O)N[C@H](C(=O)NCC(N)=O)CSCC(=O)N[C@@H](Cc2ccc(O)cc2)C(=O)N(C)[C@@H](C)C(=O)N[C@@H](CC(N)=O)C(=O)N2CCC[C@H]2C(=O)N[C@@H](Cc2cnc[nH]2)C(=O)N[C@@H](CCC(=O)O)C(=O)N2C[C@H](O)C[C@H]2C(=O)N[C@@H](Cc2c[nH]c3ccccc23)C(=O)N[C@@H](CCN)C(=O)N[C@@H](Cc2c[nH]c3ccccc23)C(=O)N(Cc2ccccc2)[C@@H](C)C(=O)N1C` [Example 3029] ({CH2CO}-Y[NMeA]NPHE[Hyp]W[Dab]W[NBnAla][NMeNle]LCG-NH2; thioether N-14) had a pIC50 of 5.00 to 7.00. Molecule `CCCC[C@H]1C(=O)N[C@@H](CC(C)C)C(=O)N[C@H](C(=O)NCC(N)=O)CSCC(=O)N[C@@H](Cc2ccc(O)cc2)C(=O)N(C)[C@@H](C)C(=O)N[C@@H](CC(N)=O)C(=O)N2CCC[C@H]2C(=O)N[C@@H](Cc2cnc[nH]2)C(=O)N[C@@H](CCC(=O)O)C(=O)N2C[C@H](O)C[C@H]2C(=O)N[C@@H](Cc2c[nH]c3ccccc23)C(=O)N[C@@H](CCN)C(=O)N[C@@H](Cc2c[nH]c3ccccc23)C(=O)N(CCO)[C@@H](CCCC)C(=O)N1C` [Example 3030] ({CH2CO}-Y[NMeA]NPHE[Hyp]W[Dab]W[X3][NMeNle]LCG-NH2; thioether N-14) had a pIC50 of 7.00 to 8.00. `CCCC[C@H]1C(=O)N(C)[C@@H](CCCC)C(=O)N[C@@H](CC(C)C)C(=O)N[C@H](C(=O)NCC(N)=O)CSCC(=O)N[C@@H](Cc2ccc(O)cc2)C(=O)N(CCN)[C@@H](C)C(=O)N[C@@H](CC(N)=O)C(=O)N2CCC[C@H]2C(=O)N[C@@H](Cc2cnc[nH]2)C(=O)N[C@@H](CCC(=O)O)C(=O)N2C[C@H](O)C[C@H]2C(=O)N[C@@H](Cc2c[nH]c3ccccc23)C(=O)N[C@@H](CCN)C(=O)N[C@@H](Cc2c[nH]c3ccccc23)C(=O)N1C` [Example 3032] ({CH2CO}-Y[X2]NPHE[Hyp]W[Dab]W[NMeNle][NMeNle]LCG-NH2; thioether N-14) gave a pIC50 of 7.00 to 8.00. In turn, `CCCC[C@H]1C(=O)N[C@@H](CC(C)C)C(=O)N[C@H](C(=O)NCC(N)=O)CSCC(=O)N[C@@H](Cc2ccc(O)cc2)C(=O)N(C)[C@@H](C)C(=O)N[C@@H](CC(N)=O)C(=O)N2CCC[C@H]2C(=O)N[C@@H](Cc2cnc[nH]2)C(=O)N[C@@H](CCC(=O)O)C(=O)N2C[C@H](O)C[C@H]2C(=O)N[C@@H](Cc2c[nH]c3ccccc23)C(=O)N[C@@H](CCN)C(=O)N[C@@H](Cc2c[nH]c3ccccc23)C(=O)N(CCO)[C@@H](C)C(=O)N1C` [Example 3033] ({CH2CO}-Y[NMeA]NPHE[Hyp]W[Dab]W[N(2-hydroxyethyl)Ala][NMeNle]LCG-NH2; thioether N-14) gave a pIC50 of 5.00 to 7.00.

The molecule `CCCC[C@H]1C(=O)N[C@@H](CC(C)C)C(=O)N[C@H](C(=O)NCC(N)=O)CSCC(=O)N[C@@H](Cc2ccc(O)cc2)C(=O)N(C)[C@@H](C)C(=O)N[C@@H](CC(N)=O)C(=O)N2CCC[C@H]2C(=O)N[C@@H](Cc2cnc[nH]2)C(=O)N[C@@H](CCC(=O)O)C(=O)N2C[C@H](O)C[C@H]2C(=O)N[C@@H](Cc2c[nH]c3ccccc23)C(=O)N[C@@H](CCN)C(=O)N[C@@H](Cc2c[nH]c3ccccc23)C(=O)N(CC(=O)O)CC(=O)N1C` [Example 3037] gave a pIC50 of 5.00 to 7.00.

In the case of `CCCC[C@H]1C(=O)N[C@@H](CC(C)C)C(=O)N[C@H](C(=O)NCC(N)=O)CSCC(=O)N[C@@H](Cc2ccc(O)cc2)C(=O)N(C)[C@@H](C)C(=O)N[C@@H](CC(N)=O)C(=O)N2CCC[C@H]2C(=O)N[C@@H](Cc2cnc[nH]2)C(=O)N[C@@H](CCC(=O)O)C(=O)N2C[C@H](O)C[C@H]2C(=O)N[C@@H](Cc2c[nH]c3ccccc23)C(=O)N[C@@H](CCN)C(=O)N[C@@H](Cc2c[nH]c3ccccc23)C(=O)N(CCC(F)(F)F)[C@@H](C)C(=O)N1C` [Example 3041] ({CH2CO}-Y[NMeA]NPHE[Hyp]W[Dab]W[X8][NMeNle]LCG-NH2; thioether N-14), the pIC50 is 7.00 to 8.00.

Take `CCCC[C@H]1C(=O)N(C)[C@@H](CCCC)C(=O)N[C@@H](CC(C)C)C(=O)N[C@H](C(=O)NCC(N)=O)CSCC(=O)N[C@@H](Cc2ccc(O)cc2)C(=O)N(CC(=O)O)CC(=O)N[C@@H](CC(N)=O)C(=O)N2CCC[C@H]2C(=O)N[C@@H](Cc2cnc[nH]2)C(=O)N[C@@H](CCC(=O)O)C(=O)N2C[C@H](O)C[C@H]2C(=O)N[C@@H](Cc2c[nH]c3ccccc23)C(=O)N[C@@H](CCN)C(=O)N[C@@H](Cc2c[nH]c3ccccc23)C(=O)N1C` [Example 3044]: the pIC50 is 7.00 to 8.00.

In turn, `CCCC[C@H]1C(=O)N(C)[C@@H](CCCC)C(=O)N[C@@H](CC(C)C)C(=O)N[C@H](C(=O)NCC(N)=O)CSCC(=O)N[C@@H](Cc2ccc(O)cc2)C(=O)N(CCO)CC(=O)N[C@@H](CC(N)=O)C(=O)N2CCC[C@H]2C(=O)N[C@@H](Cc2cnc[nH]2)C(=O)N[C@@H](CCC(=O)O)C(=O)N2C[C@H](O)C[C@H]2C(=O)N[C@@H](Cc2c[nH]c3ccccc23)C(=O)N[C@@H](CCN)C(=O)N[C@@H](Cc2c[nH]c3ccccc23)C(=O)N1C` [Example 3045] ({CH2CO}-Y[Gly(N-CH2CH2OH)]NPHE[Hyp]W[Dab]W[NMeNle][NMeNle]LCG-NH2; thioether N-14) gave a pIC50 of 7.00 to 8.00. `CCCC[C@H]1C(=O)N(C)[C@@H](CCCC)C(=O)N[C@@H](CC(C)C)C(=O)N[C@H](C(=O)NCC(N)=O)CSCC(=O)N[C@@H](Cc2ccc(O)cc2)C(=O)N(CCC(F)(F)F)CC(=O)N[C@@H](CC(N)=O)C(=O)N2CCC[C@H]2C(=O)N[C@@H](Cc2cnc[nH]2)C(=O)N[C@@H](CCC(=O)O)C(=O)N2C[C@H](O)C[C@H]2C(=O)N[C@@H](Cc2c[nH]c3ccccc23)C(=O)N[C@@H](CCN)C(=O)N[C@@H](Cc2c[nH]c3ccccc23)C(=O)N1C` [Example 3046] ({CH2CO}-Y[X1]NPHE[Hyp]W[Dab]W[NMeNle][NMeNle]LCG-NH2; thioether N-14) gave a pIC50 of 7.00 to 8.00. Take `CCCC[C@H]1C(=O)N(C)[C@@H](CCCC)C(=O)N[C@@H](CC(C)C)C(=O)N[C@H](C(=O)NCC(N)=O)CSCC(=O)N[C@@H](Cc2ccc(O)cc2)C(=O)N(C)[C@@H](C)C(=O)N[C@@H](CC(N)=O)C(=O)N2CCC[C@H]2C(=O)N[C@@H](Cc2c[nH]cn2)C(=O)N[C@@H](CCC(=O)O)C(=O)N(CC(=O)O)CC(=O)N[C@@H](Cc2c[nH]c3ccccc23)C(=O)N[C@@H](CCN)C(=O)N[C@@H](Cc2csc3ccccc23)C(=O)N1C` [Example 5001]: the pIC50 was 8.00 to 8.30. `CCCC[C@H]1C(=O)N(C)[C@@H](CCCC)C(=O)N[C@@H](CC(C)C)C(=O)N[C@H](C(=O)NCC(N)=O)CSCC(=O)N[C@@H](Cc2ccc(O)cc2)C(=O)N(C)[C@@H](C)C(=O)N[C@@H](CC(N)=O)C(=O)N(CC(=O)O)CC(=O)N[C@@H](Cc2c[nH]cn2)C(=O)N[C@@H](CCC(=O)O)C(=O)N2C[C@H](O)C[C@H]2C(=O)N[C@@H](Cc2c[nH]c3ccccc23)C(=O)N[C@@H](CCN)C(=O)N[C@@H](Cc2csc3ccccc23)C(=O)N1C` [Example 5002]: the pIC50 was 8.00 to 8.30.

A word on the pIC50: it is the IC50 on a negative log10 scale, so that one unit is a factor of ten.

The values are drawn from patent publication US9861680B2, “Immunomodulators” (BRISTOL-MYERS SQUIBB COMPANY, priority 2014, dated 2018).
